The text below walks through data of patent publication US11440923B2, “Substituted macrocyclic indole derivatives” (Bayer Aktiengesellschaft, priority 2017, dated 2022).

In general, pEC50 refers to the negative decadic logarithm of the EC50, by convention in mol/L. By pIC50 is commonly meant −log10 of the IC50, conventionally taken in molar units.

Holding throughout (assay type): cell-based
The test system of one assay is SUDHL10 cells. The experiment in a line: Induction of caspase-3/7 activity in SUDHL10 cells (Assay 4). The method in brief:
(§1)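 Caspase-3/7 activity measured in DLBCL lines after 3 h compound exposure at 37 °C, following overnight plating; Caspase-Glo 3/7 luminescence read after 1 h at 37 °C. Medium-only background subtracted, values normalized to mean of DMSO-treated cells.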

The subject of another assay is SUDHL5 cells. The experiment in a line: Induction of caspase-3/7 activity in SUDHL5 cells (Assay 4). The essentials: as §1
The subject of the next assay is AMO-1 cells. The experiment in a line: Antiproliferation assay AMO-1 (Assay 7). The essentials:
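Using a parallel time-zero plate as baseline, the anti-proliferative effect was assessed by CellTiter-Glo after 72 h compound incubation at 37 °C. IC50 was computed from day 0 and DMSO control values.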

Setting [1] is: Homo sapiens, SU-DHL10, 3 h, caspase-3/7 induction, 3 h; read-out: Caspase SUDHL10 EC50 (median).
The mark [2] stands for this setting: Homo sapiens, SU-DHL-5, 3 h, caspase-3/7 induction, 3 h; read-out: Caspase SUDHL5 EC50 (median).
[3] abbreviates: Homo sapiens, AMO1, 72 h, 72 h, CellTiter-Glo, read-out: Antiproli AMO-1 IC50 median.
Setting [4] is: read-out: Caspase SUDHL10 EC50 (median); caspase-3/7 induction, 3 h.
Setting [5] is: read-out: Caspase SUDHL5 EC50 (median); caspase-3/7 induction, 3 h.
[6] abbreviates: read-out: Antiproli AMO-1 IC50 median, 72 h, CellTiter-Glo.
Setting [7] is: caspase-3/7 induction, 3 h; read-out: Caspase SUDHL10 EC50 (median).
Where [8] appears, read: caspase-3/7 induction, 3 h; read-out: Caspase SUDHL5 EC50 (median).
[9] abbreviates: 72 h, CellTiter-Glo, read-out: Antiproli AMO-1 IC50 median.

pEC50, pIC50: −log10 of the molar value. Structures can show the parent of a compound that is named as a salt. Where two headings read alike, the source gives them in different places.

`CCc1c2c(nn1C)C(C(F)(F)F)OCCCCn1c(C(=O)O)c(CCCOc3cccc4ccccc34)c3ccc(Cl)c-2c31` (racemic) [Example 27, (rac)-4-Chloro-3-ethyl-2-methyl-7-{3-[(naphthalen-1-yl)oxy]propyl}-15-(trifluoromethyl)-2,10,11,12,13,15-hexahydropyrazolo[4′,3′:9,10][1,6]oxazacycloundecino[8,7,6-hi]indole-8-carboxylic Acid]: the pEC50 with SUDHL10 cells (setting [1]) is 5.18; with SUDHL5 cells (setting [2]), 5.49. In addition, the pIC50 in the assay on AMO-1 cells (setting [3]) was 4.92.
On to `CCc1c2c(nn1C)C(C(F)(F)F)OCCCCn1c(C(=O)O)c(CCCOc3cccc4ccccc34)c3ccc(Cl)c-2c31` (single isomer, unassigned; enantiomer 1) [Example 33, (+)-4-chloro-3-ethyl-2-methyl-7-{3-[(naphthalen-1-yl)oxy]propyl}-15-(trifluoromethyl)-2,10,11,12,13,15-hexahydropyrazolo[4′,3′:9,10][1,6]oxazacycloundecino[8,7,6-hi]indole-8-carboxylic Acid—N-ethylethanamine Salt (Enantiomer 1)], for which the pEC50 in the assay with SUDHL10 cells (setting [4]) was 5.35; in the assay with SUDHL5 cells (setting [5]), 5.74. The pIC50 in the assay with AMO-1 cells (setting [6]) was 5.16.
As to `CCc1c2c(nn1C)C(CCN1CC(F)(F)C1)OCCCCn1c(C(=O)O)c(CCCOc3cccc4cc(F)ccc34)c3ccc(Cl)c-2c31` (single isomer, unassigned; (+)) [Example 78, (+)-4-chloro-15-[2-(3,3-difluoroazetidin-1-yl)ethyl]-3-ethyl-7-{3-[(6-fluoronaphthalen-1-yl)oxy]propyl}-2-methyl-2,10,11,12,13,15-hexahydropyrazolo[4′,3′:9,10][1,6]oxazacycloundecino[8,7,6-hi]indole-8-carboxylic Acid—N-ethylethanamine Salt], the pEC50 in the assay on SUDHL10 cells (setting [7]) was 8.00; in the assay with SUDHL5 cells (setting [8]), 7.89. In addition, in the assay with AMO-1 cells (setting [9]), the negative logarithm of the IC50 (pIC50) is 7.95.
As to `CCc1c2c(nn1C)C(C1CC1)OCCCCn1c(C(=O)O)c(CCCOc3cccc4cc(F)ccc34)c3ccc(Cl)c-2c31` (single isomer, unassigned; enantiomer 1) [Example 39, (+)-4-chloro-15-cyclopropyl-3-ethyl-7-{3-[(6-fluoronaphthalen-1-yl)oxy]propyl}-2-methyl-2,10,11,12,13,15-hexahydropyrazolo[4′,3′:9,10][1,6]oxazacycloundecino[8,7,6-hi]indole-8-carboxylic Acid—N-ethylethanamine Salt (Enantiomer 1)], the pEC50 was 5.82 in the assay with SUDHL10 cells (setting [4]) and 6.12 with SUDHL5 cells (setting [5]). In addition, the pIC50 in the assay with AMO-1 cells (Homo sapiens, AMO1, 72 h, read-out: Antiproli AMO-1 IC50 median, 72 h, CellTiter-Glo) is 5.31.
Turning to `CCc1c2c(nn1C)C(CCC1CCOCC1)OCCCCn1c(C(=O)O)c(CCCOc3cccc4cc(F)ccc34)c3ccc(Cl)c-2c31` (single isomer, unassigned; enantiomer 1) [Example 61, 4-chloro-3-ethyl-7-{3-[(6-fluoronaphthalen-1-yl)oxy]propyl}-2-methyl-15-[2-(oxan-4-yl)ethyl]-2,10,11,12,13,15-hexahydropyrazolo[4′,3′:9,10][1,6]oxazacycloundecino[8,7,6-hi]indole-8-carboxylic Acid (Enantiomer 1)], the results for the negative logarithm of the EC50 (pEC50) with SUDHL10 cells (setting [7]) and in the assay on SUDHL5 cells (setting [8]) were 7.64 and 7.51, respectively. For the same molecule, the pIC50 in the assay with AMO-1 cells (setting [9]) is 7.65.
Regarding `CCc1c2c(nn1C)C(CCN1CCOCC1)OCCCCn1c(C(=O)O)c(CCCOc3cccc4ccccc34)c3ccc(F)c-2c31` (single isomer, unassigned; enantiomer 1) [Example 11, 3-ethyl-4-fluoro-2-methyl-15-[2-(morpholin-4-yl)ethyl]-7-{3-[(naphthalen-1-yl)oxy]propyl}-2,10,11,12,13,15-hexahydropyrazolo[4′,3′:9,10][1,6]oxazacycloundecino[8,7,6-hi]indole-8-carboxylic Acid—N-ethylethanamine Salt (Enantiomer 1)], the pEC50 with SUDHL10 cells (setting [4]) was 6.72; in the assay with SUDHL5 cells (setting [5]) it was 7.01. Also, in the assay with AMO-1 cells (setting [6]), the pIC50 was 6.80.
As for `CCc1c2c(nn1C)C(C1CC1)OCCCCn1c(C(=O)O)c(CCCOc3cccc4cc(F)ccc34)c3ccc(Cl)c-2c31` (racemic) [Example 38, (rac)-4-chloro-(15-rac)-cyclopropyl-3-ethyl-7-{3-[(6-fluoronaphthalen-1-yl)oxy]propyl}-2-methyl-2,10,11,12,13,15-hexahydropyrazolo[4′,3′:9,10][1,6]oxazacycloundecino[8,7,6-hi]indole-8-carboxylic Acid], the results for the pEC50 in the assay with SUDHL10 cells (setting [1]) and with SUDHL5 cells (setting [2]) were 5.28 and 5.44, respectively. For the same molecule, the pIC50 with AMO-1 cells (setting [3]) was 5.30.
`CCc1c2c(nn1C)C1CCCN1CCCCn1c(C(=O)O)c(CCCOc3cccc4cc(F)ccc34)c3ccc(Cl)c-2c31` (single isomer, unassigned; (+)) [Example 105, (+)-17-chloro-1-ethyl-14-{3-[(6-fluoronaphthalen-1-yl)oxy]propyl}-2-methyl-3b,4,5,6,8,9,10,11-octahydro-2H-pyrazolo[3′,4′:8,9]pyrrolo[1′,2′:6,7][1,6]diazacycloundecino[10,11,1-hi]indole-13-carboxylic Acid]: the pEC50 in the assay with SUDHL10 cells (setting [7]) was 6.89; in the assay with SUDHL5 cells (setting [8]), 6.48. In addition, the pIC50 in the assay with AMO-1 cells (setting [9]) was 6.69.
As for `CCc1c2c(nn1C)C1CCCCN1CCCCn1c(C(=O)O)c(CCCOc3cccc4ccccc34)c3ccc(Cl)c-2c31` (racemic) [Example 102, (rac)-18-chloro-1-ethyl-2-methyl-15-[3-(1-naphthyloxy)propyl]-2,3b,4,5,6,7,9,10,11,12-decahydropyrazolo[3′,4′:8,9]pyrido[1′,2′:6,7][1,6]diazacycloundecino[10,11,1-hi]indole-14-carboxylic Acid], the results for the negative logarithm of the EC50 (pEC50) in the assay with SUDHL10 cells (setting [1]) and with SUDHL5 cells (setting [2]) were 6.00 and 6.11, respectively. In the assay with AMO-1 cells (setting [3]), the pIC50 was 6.28.
On to `CCc1c2c(nn1C)C(CCC(C)(C)O)OCCCCn1c(C(=O)O)c(CCCOc3cccc4cc(F)ccc34)c3ccc(Cl)c-2c31` (single isomer, unassigned; enantiomer 1) [Example 75, (+)-4-chloro-3-ethyl-7-{3-[(6-fluoronaphthalen-1-yl)oxy]propyl}-15-(3-hydroxy-3-methylbutyl)-2-methyl-2,10,11,12,13,15-hexahydropyrazolo[4′,3′:9,10][1,6]oxazacycloundecino[8,7,6-hi]indole-8-carboxylic Acid—N-ethylethanamine Salt (Enantiomer 1)], for which the pEC50 with SUDHL10 cells (setting [7]) is 8.18; in the assay on SUDHL5 cells (setting [8]), 8.01. Besides, in the assay on AMO-1 cells (setting [9]), the negative-log IC50 (pIC50) was 7.86.
As to `CCc1c2c(nn1C)C(CCC1CCOCC1)OCCCCn1c(C(=O)O)c(CCCOc3cccc4cc(F)ccc34)c3ccc(Cl)c-2c31` (single isomer, unassigned; enantiomer 1) [Example 63, (+)-4-chloro-3-ethyl-7-{3-[(6-fluoronaphthalen-1-yl)oxy]propyl}-2-methyl-15-[2-(oxan-4-yl)ethyl]-2,10,11,12,13,15-hexahydropyrazolo[4′,3′:9,10][1,6]oxazacycloundecino[8,7,6-hi]indole-8-carboxylic Acid—N-ethylethanamine Salt (Enantiomer 1)], the pEC50 was 7.28 in the assay with SUDHL10 cells (setting [4]) and 7.46 in the assay on SUDHL5 cells (setting [5]). Moreover, in the assay with AMO-1 cells (setting [6]), the pIC50 is 7.70.
